# Values of other authors in patent US20120294937A1, “NEW PHARMACEUTICAL DOSAGE FORM FOR THE TREATMENT OF GASTRIC ACID-RELATED DISORDERS” (NOVARTIS AG, priority 2009, published 2012).
# Test system: stomach acid pH
structure (smiles),measurement,setting,value
NC(N)=Nc1nc(CSCCC(N)=NS(N)(=O)=O)cs1 [famotidine],time stomach acid controlled at pH>4,"Day 1, clinical setting",54 % of the day
same,percentage of time controlling stomach acid,"Day 8, steady state for omeprazole reached, clinical setting",48 % of the day
